Experimental data as given in patent US6818646B2 (priority 2000, dated 2004).

Legend:
[1] = In vivo testing for efficacy, procedure of Carter et al.
Experimental: Following the procedure disclosed by Carter et al., (Carter, A. J., Ballard, S. A., and Naylor, A. M.) in The Journal of Urology 1998, 160, 242-246, the compounds as listed in Table 7 were tested for in vivo efficacy, with results as tabulated below.

PDEV [2] = biological target: T1, PDEV (Homo sapiens, UniProt O76074); assay: PDE assay: inhibition of PDEV isolated from human tissue; assay type: biochemical; conditions: for IC50: PDEV inhibitory activity
T1 construct: PDEV was isolated from rabbit and human tissues according to the protocol described by Boolell et al; from tissue; host or cells: human tissue, homogenate supernatant fractionated on Mono Q
Experimental: (§1) Briefly, rabbit or human tissues were homogenized in an ice-cold buffer solution containing 20 mM HEPES (pH 7.2), 0.25M sucrose, 1 mM EDTA, and 1 mM phenylmethylsulphonyl fluoride (PMSF). The homogenates were centrifuged at 100,000 g for 60 minutes at 4° C. The supernatant was filtered through […] filter and loaded on a Pharmacia Mono Q anion exchange column (1 ml bed volume) that was equilibrated with 20 mM HEPES, 1 mM EDTA and 0.5 mM PMSF. After washing out unbound proteins, the enzymes were eluted with a linear gradient of 100-600 mM NaCl in the same buffer (35 to 50 ml total, depending on the tissue. Enzymes from the skeletal muscle, corpus cavernosum, retina, heart and platelet were eluted with 35, 40, 45, 50, and 50 ml respectively.) The column was run at a flow rate of 1 ml/min and 1 ml fractions were collected. The fractions comprising various PDE activities were pooled separately and used in later studies.
(§2) The assays were adapted to a 96-well format. The enzyme was assayed in 5 mM MgCl2, 15 mM Tris HCl (pH 7.4), 0.5 mg/ml bovine serum albumin, 1 μM cGMP or cAMP, 0.1 μCi [^3H]-cGMP or [^3H]-cAMP, and 2-10 μl of column elution. The total volume of the assay was 100 μl. The reaction mixture was incubated at 30° C. for 30 minutes. The reaction was stopped by boiling for 1 minute and then cooled down on ice. The resulting [^3H]5′-mononucleotides were further converted to uncharged [^3H]-nucleosides by adding 25 μl 1 mg/ml snake venom (Ophiophagus hannah) and incubating at 30° C. for 10 minute. The reaction was stopped by the addition of 1 ml Bio-Rad AG1-X2 resin slurry (1:3). All the charged nucleotides were bound by the resin and only uncharged [^3H]-nucleosides remained in the supernatant after centrifuging. An aliquot of 200 μl was taken and counted by liquid scintillation. PDE activity was expressed as pmol cyclic nucleotide hydrolyzed/min/ml of enzyme preparation.
(§3) Inhibitor studies were carried out in assay buffer with a final concentration of 10% DMSO.
(§4) The % inhibition of the maximum substrate conversion (by the enzyme in the absence of inhibitor) was calculated for each test compound concentration. Using GraphPad Prism's nonlinear regression analysis (sigmoidal dose response), the % inhibition vs log of the test compound concentration was plotted to determine the IC50. Under conditions where substrate concentration <<Km of the enzyme (Km=substrate concentration at which half of the maximal velocity of the enzyme is achieved), Ki is equivalent to the IC50 value.
(§5) Unless otherwise noted, PDEV inhibitory activities were measured using human tissue. The abbreviation “stereo” refers to the stereogenic configuration, the abbreviation “Rac” shall denote a racemic mixture.

PDEV [3] = biological target: T1, PDEV; assay: In vitro determination of Ki for phosphodiesterase inhibitors; assay type: biochemical; conditions: human tissue; given as 'Ki ='
Experimental: The assays were adapted to a 96-well format. Phosphodiesterase was assayed in 5 mM MgCl2, 15 mM Tris HCl (pH 7.4), 0.5 mg/ml bovine serum albumin, 30 nM ^3H-cGMP and test compound at various concentrations. The amount of enzyme used for each reaction was such that less than 15% of the initial substrate was converted during the assay period. For all measurements, the test compound was dissolved and diluted in 100% DMSO (2% DMSO in assay). The total volume of the assay was 100 μl. The reaction mixture was incubated at 30° C. for 90 minutes. The reaction was stopped by boiling for 1 minute and then immediately cooled by transfer to an ice bath. To each well was then added 25 μl 1 mg/ml snake venom (Ophiophagus hannah) and the reaction mixture incubating at 30° C. for 10 minute. The reaction was stopped by the addition of 1 ml Bio-Rad AG1-X2 resin slurry (1:3). An aliquot of 200 μl was taken and counted by liquid scintillation.
as §4, §5

PDEV [4] = biological target: PDEV (Oryctolagus cuniculus, UniProt G1SX67); assay: PDE assay: inhibition of PDEV isolated from rabbit tissue; assay type: biochemical; conditions: PDEV inhibitory activity, rabbit tissue (footnote a)
Experimental: as §1, §2, §3, §4, §5

| SMILES | Efficacy [1] | IC50 (PDEV [2]) | Ki (PDEV [3]) | also measured |
| --- | --- | --- | --- | --- |
| COc1ccc(-c2cnc(N3Cc4c([nH]c5ccccc5c4=O)[C@H]3c3ccc4c(c3)OCO4)nc2)cc1OC [Compound 36, (R)-1,2,3,4-Tetrahydro-2-[5-(3,4-dimethoxyphenyl)-pyrimidin-2-yl]-3-(3,4-methylenedioxyphenyl)-9H-pyrrolo-[3,4-b]quinolin-9-one] | Active | 0.075 nM | – | – |
| O=c1c2c([nH]c3ccccc13)[C@@H](c1ccc3c(c1)CCO3)N(c1ncc(-c3ccccn3)cn1)C2 [Compound 65, (R)-1,2,3,4-Tetrahydro-2-[5-(2-pyridinyl)-pyrimidin-2-yl]-3-(2,3-dihydrobenzofuranyl)-9H-pyrrolo-[3,4-b]quinolin-9-one] | Active | 0.23 nM | – | – |
| COc1ccc(-c2cnc(N3Cc4c([nH]c5ccccc5c4=O)[C@H]3c3ccc4c(c3)CCO4)nc2)cc1 [Compound 66, (R)-1,2,3,4-Tetrahydro-2-[5-(4-methoxyphenyl)-pyrimidin-2-yl]-3-(2,4-dihydrobenzofuranyl)-9H-pyrrolo-[3,4-b]quinolin-9-one] | Active | 0.19 nM | – | – |
| O=c1c2c([nH]c3ccccc13)C(c1ccc3c(c1)OCO3)N(C(=S)n1ccnc1)C2 (racemic) [Compound 18, 1,2,3,4-Tetrahydro-2-(imidazol-1-yl)thiocarbonyl-3-(3,4-methylenedioxyphenyl)-9H-pyrrolo-[3,4-b]quinolin-9-one] | – | – | – | melting point: 211 to 215 °C (dec.); inhibition at 10 µM (PDEV [2]; 10 μM test compound): 54% |
| Oc1c2c(nc3ccccc13)C(c1ccc3c(c1)CCO3)N(c1ccc(-c3ccccn3)cn1)C2 (racemic) [Compound 134, 2-[2,3′]Bipyridinyl-6′-yl-3-(2,3-dihydro-benzofuran-5-yl)-1,2,3,4-tetrahydro-pyrrolo[3,4-b]quinolin-9-one] | – | – | 1.1 nM | – |
| Cc1ncc(-c2cnc(N3Cc4c(nc5ccccc5c4O)C3c3ccc4c(c3)CCO4)nc2)n1Cc1ccccc1 (racemic) [Compound 127, 2-[5-(3-Benzyl-2-methyl-3H-imidazol-4-yl)-pyrimidin-2-yl]-3-(2,3-dihydro-benzofuran-5-yl)-1,2,3,4-tetrahydro-pyrrolo[3,4-b]quinolin-9-one] | – | – | 0.14 nM | – |
| COc1ccc(-c2cnc(N3Cc4c([nH]c5ccccc5c4=O)C3c3ccc4c(c3)OCO4)nc2)cc1 (racemic) [Compound 2, 1,2,3,4-Tetrahydro-2-[5-(4-methoxyphenyl)-pyrimidin-2-yl]-3-(3,4-methylene-dioxyphenyl)-9H-pyrrolo-[3,4-b]quinolin-9-one] | – | 0.191 nM | – | melting point: 325 to 327 °C |
| O=c1c2c([nH]c3ccccc13)C(c1ccc3c(c1)CCO3)N(c1ccccn1)C2 (racemic) [Compound 129, 3-(2,3-Dihydro-benzofuran-5-yl)-2-pyridin-2-yl-1,2,3,4-tetrahydro-pyrrolo[3,4-b]quinolin-9-one] | – | – | 0.65 nM | – |
| O=c1c2c([nH]c3ccccc13)C(c1ccc3c(c1)CCO3)N(c1ccccn1)C2 (stereo not drawn) [Compound 136, 3-(2,3-Dihydro-benzofuran-5-yl)-2-pyridin-2-yl-1,2,3,4-tetrahydro-pyrrolo[3,4-b]quinolin-9-one] | – | – | 0.18 nM | – |
| Cl.O=C(OCc1ccncc1)N1Cc2c([nH]c3ccccc3c2=O)C1c1ccc2c(c1)OCO2 (racemic) [Compound 37, 1,2,3,4-Tetrahydro-2-[(4-pyridinyl)methyloxycarbonyl]-3-(3,4-methylenedioxyphenyl)-9H-pyrrolo-[3,4-b]quinolin-9-one, hydrochloride salt] | Active | 5.72 nM | – | – |
| COc1ccc(C2NCc3c2[nH]c2ccccc2c3=O)cc1OC (racemic) [Compound 12, 1,2,3,4-Tetrahydro-3-(3,4-dimethoxyphenyl)-9H-pyrrolo-[3,4-b]quinolin-9-one] | – | – | – | IC50 (PDEV [4]): 549 nM; melting point: 223 to 225 °C |
